Measured values reported in PubChem BioAssay (NCI).
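Briefly, cells in 96-well plates were exposed to five compound concentrations for 48 h, and endpoints were estimated by linear interpolation. TGI denotes the concentration required for complete inhibition of growth.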

How the values were obtained:
Test in all cases: inhibition of tumour cell growth, NCI panel, 48 h
HS 578T breast = tested on: HS 578T breast
MALME-3M melanoma = tested on: MALME-3M melanoma
SF-268 CNS = tested on: SF-268 CNS
SF-539 CNS = tested on: SF-539 CNS
HCT-116 colon = tested on: HCT-116 colon
SK-MEL-28 melanoma = tested on: SK-MEL-28 melanoma
CCRF-CEM leukemia = tested on: CCRF-CEM leukemia
EKVX NSCLC = tested on: EKVX NSCLC
OVCAR-4 ovarian = tested on: OVCAR-4 ovarian
A549 NSCLC = tested on: A549 NSCLC
OVCAR-8 ovarian = tested on: OVCAR-8 ovarian
NCI-H460 lung = tested on: NCI-H460 lung
COLO 205 colon = tested on: COLO 205 colon
RPMI-8226 leukemia = tested on: RPMI-8226 leukemia
NCI/ADR-RES ovarian = tested on: NCI/ADR-RES ovarian
IGROV1 ovarian = tested on: IGROV1 ovarian
MDA-MB-435 = tested on: MDA-MB-435
NCI-H522 lung = tested on: NCI-H522 lung
SF-295 CNS = tested on: SF-295 CNS
ACHN renal = tested on: ACHN renal
SK-OV-3 ovarian = tested on: SK-OV-3 ovarian
HCT-15 colon = tested on: HCT-15 colon
SNB-19 CNS = tested on: SNB-19 CNS
SR leukemia = tested on: SR leukemia
A498 renal = tested on: A498 renal
BT-549 breast = tested on: BT-549 breast
MDA-N = tested on: MDA-N
CAKI-1 renal = tested on: CAKI-1 renal
SNB-75 CNS = tested on: SNB-75 CNS
HCC-2998 colon = tested on: HCC-2998 colon
UO-31 renal = tested on: UO-31 renal
PC-3 prostate = tested on: PC-3 prostate
M14 melanoma = tested on: M14 melanoma
OVCAR-5 ovarian = tested on: OVCAR-5 ovarian
T-47D breast = tested on: T-47D breast
MDA-MB-231 breast = tested on: MDA-MB-231 breast
786-0 renal = tested on: 786-0 renal
NCI-H23 lung = tested on: NCI-H23 lung
HOP-62 NSCLC = tested on: HOP-62 NSCLC
RXF 393 renal = tested on: RXF 393 renal
KM12 colon = tested on: KM12 colon
NCI-H226 lung = tested on: NCI-H226 lung
SW-620 colon = tested on: SW-620 colon
MCF7 breast = tested on: MCF7 breast
UACC-257 melanoma = tested on: UACC-257 melanoma
LOX IMVI melanoma = tested on: LOX IMVI melanoma
HT29 colon = tested on: HT29 colon
U251 CNS = tested on: U251 CNS
SN12C renal = tested on: SN12C renal
OVCAR-3 ovarian = tested on: OVCAR-3 ovarian
SK-MEL-2 melanoma = tested on: SK-MEL-2 melanoma
MOLT-4 leukemia = tested on: MOLT-4 leukemia
DU-145 prostate = tested on: DU-145 prostate
K-562 leukemia = tested on: K-562 leukemia
UACC-62 melanoma = tested on: UACC-62 melanoma
SK-MEL-5 melanoma = tested on: SK-MEL-5 melanoma
HOP-92 NSCLC = tested on: HOP-92 NSCLC
TK-10 renal = tested on: TK-10 renal

O=C(/C=C/c1ccc(-c2ccccc2)cc1)NCc1ccc(C(=O)NCCc2c[nH]c3ccccc23)cc1
TGI (HS 578T breast): > 100 µM
TGI (MALME-3M melanoma): > 100 µM
TGI (SF-268 CNS): > 100 µM
TGI (SF-539 CNS): > 100 µM
TGI (HCT-116 colon): > 100 µM
TGI (SK-MEL-28 melanoma): > 100 µM
TGI (CCRF-CEM leukemia): 32.1 µM
TGI (EKVX NSCLC): 94.8 µM
TGI (OVCAR-4 ovarian): 72.1 µM
TGI (A549 NSCLC): 60.4 µM
TGI (OVCAR-8 ovarian): > 100 µM
TGI (NCI-H460 lung): > 100 µM
TGI (COLO 205 colon): > 100 µM
TGI (RPMI-8226 leukemia): > 100 µM
TGI (NCI/ADR-RES ovarian): > 100 µM
TGI (IGROV1 ovarian): > 100 µM
TGI (MDA-MB-435): > 100 µM
TGI (NCI-H522 lung): > 100 µM
TGI (SF-295 CNS): 38.6 µM
TGI (ACHN renal): > 100 µM
TGI (SK-OV-3 ovarian): 35.2 µM
TGI (HCT-15 colon): > 100 µM
TGI (SNB-19 CNS): 53.6 µM
TGI (SR leukemia): > 100 µM
TGI (A498 renal): 80.4 µM
TGI (BT-549 breast): > 100 µM
TGI (MDA-N): > 100 µM
TGI (CAKI-1 renal): 40.7 µM
TGI (SNB-75 CNS): 42.8 µM
TGI (HCC-2998 colon): > 100 µM
TGI (UO-31 renal): > 100 µM
TGI (PC-3 prostate): > 100 µM
TGI (M14 melanoma): > 100 µM
TGI (OVCAR-5 ovarian): 66.6 µM
TGI (T-47D breast): > 100 µM
TGI (MDA-MB-231 breast): 42.1 µM
TGI (786-0 renal): 26.7 µM
TGI (NCI-H23 lung): > 100 µM
TGI (HOP-62 NSCLC): 36.7 µM
TGI (RXF 393 renal): > 100 µM
TGI (KM12 colon): > 100 µM
TGI (NCI-H226 lung): 60.1 µM
TGI (SW-620 colon): > 100 µM
TGI (MCF7 breast): > 100 µM
TGI (UACC-257 melanoma): > 100 µM
TGI (LOX IMVI melanoma): > 100 µM
TGI (HT29 colon): 29.3 µM
TGI (U251 CNS): > 100 µM
TGI (SN12C renal): 23.8 µM
TGI (OVCAR-3 ovarian): 92.6 µM
TGI (SK-MEL-2 melanoma): > 100 µM
TGI (MOLT-4 leukemia): 38.8 µM
TGI (DU-145 prostate): > 100 µM
TGI (K-562 leukemia): 45.6 µM
TGI (UACC-62 melanoma): > 100 µM
TGI (SK-MEL-5 melanoma): > 100 µM
TGI (HOP-92 NSCLC): > 100 µM
TGI (TK-10 renal): 86.8 µM

NS(=O)(=O)c1ccc(Nc2c3ccccc3nc3c(C(=O)NCCCN(CCO)CCO)cccc23)cc1
TGI (HS 578T breast): 53.8 µM
TGI (MALME-3M melanoma): 42 µM
TGI (SF-268 CNS): 45.5 µM
TGI (SK-MEL-28 melanoma): 41.9 µM
TGI (CCRF-CEM leukemia): 58.6 µM
TGI (EKVX NSCLC): > 100 µM
TGI (OVCAR-4 ovarian): > 100 µM
TGI (A549 NSCLC): 69.2 µM
TGI (OVCAR-8 ovarian): > 100 µM
TGI (NCI-H460 lung): 36.9 µM
TGI (COLO 205 colon): 30.2 µM
TGI (RPMI-8226 leukemia): 78.7 µM
TGI (NCI/ADR-RES ovarian): > 100 µM
TGI (IGROV1 ovarian): 68.2 µM
TGI (MDA-MB-435): 37.2 µM
TGI (NCI-H522 lung): 44.1 µM
TGI (SF-295 CNS): > 100 µM
TGI (ACHN renal): > 100 µM
TGI (SK-OV-3 ovarian): > 100 µM
TGI (HCT-15 colon): > 100 µM
TGI (SNB-19 CNS): 45.7 µM
TGI (SR leukemia): 40.6 µM
TGI (A498 renal): > 100 µM
TGI (BT-549 breast): 52.7 µM
TGI (MDA-N): 41.9 µM
TGI (CAKI-1 renal): > 100 µM
TGI (HCC-2998 colon): 54.8 µM
TGI (UO-31 renal): > 100 µM
TGI (PC-3 prostate): > 100 µM
TGI (M14 melanoma): 45.1 µM
TGI (OVCAR-5 ovarian): 98.4 µM
TGI (T-47D breast): 44.2 µM
TGI (MDA-MB-231 breast): > 100 µM
TGI (786-0 renal): 45.2 µM
TGI (NCI-H23 lung): 53.8 µM
TGI (HOP-62 NSCLC): 66.1 µM
TGI (KM12 colon): 38.5 µM
TGI (SW-620 colon): 52.7 µM
TGI (MCF7 breast): 20.1 µM
TGI (UACC-257 melanoma): 67.6 µM
TGI (LOX IMVI melanoma): 59.1 µM
TGI (HT29 colon): 77 µM
TGI (U251 CNS): 31.7 µM
TGI (SN12C renal): 46.5 µM
TGI (OVCAR-3 ovarian): 62.5 µM
TGI (SK-MEL-2 melanoma): 58.9 µM
TGI (MOLT-4 leukemia): 99 µM
TGI (DU-145 prostate): > 100 µM
TGI (K-562 leukemia): > 100 µM
TGI (UACC-62 melanoma): 57.8 µM
TGI (SK-MEL-5 melanoma): 32.4 µM
TGI (HOP-92 NSCLC): > 100 µM
TGI (TK-10 renal): > 100 µM
